Columns and labels:
[1] = literature report; cited from earlier work
[2] = test system: female Sprague-Dawley rats; assay: Non-stop transvesical cystometrogram in urethane-anesthetized rats (continuous cystometry); format: in vivo
Method: Ten female Sprague-Dawley rats having a mean weight of 263±19 g were anesthetized with urethane (1.2 g/k, sc.). A midline incision was performed to expose the bladder and a 23G catheter was inserted into the bladder dome for the measurement of intravesical pressure. A non-stop transvesical cystometrogram, as described in J. Pharmacological. Methods, 15, pp. 157-167 (1986), was used, at a filling rate of 0.216 ml/min. of saline, to access the filling and voiding characteristics of the bladder. Through the continuous cystometry method thus afforded, consecutive micturition could be recorded. Dextromethorphan was given at intravenous does of: 1.0, 3.0, 10, 30, 50 mg/kg after the initial baseline micturition sequence was reliably measured for approximately 12 min. From these recordings the absolute values in maximum pressure obtained and the frequency of micturition was measured. A dose response curve illustrating the effect of dextromethorphan on the absolute micturition pressures in the range of 1-50 mg/kg is given in FIG. 1. Data given are mean and SE.

| SMILES | frequency in micturition [1] | volume evoked micturition reflex ([2]; increasing intravenous doses 1.0-50 mg/kg, cystometrogram, anesthetized rats) | reduction in detrusor pressure ([2]; intravenous 10 mg/kg) | frequency of micturition ([2]; intravenous 1-50 mg/kg, dose response, FIG. 2) | reduction in detrusor pressure ([2]; intravenous dose level of 3 mg/kg) | effect on detrusor pressure at high doses (initial increase before suppression) ([2]; intravenous doses higher than 10 mg/kg) | volume evoked micturition contractions ([2]; intravenous doses in the range of 10-30 mg/kg) |
| --- | --- | --- | --- | --- | --- | --- | --- |
| C[C@]12N[C@H](Cc3ccccc31)c1ccccc12 [MK-801] | increase in frequency in micturition |  |  |  |  |  |  |
| COc1ccc2c(c1)[C@@]13CCCC[C@H]1[C@@H](C2)N(C)CC3 [dextromethorphan, (+)-3-methoxy-N-methylmorphinan] |  | suppressed in a dose sensitive manner | 50% | decrements gradually with respect to dose | significant sustained reduction | bimodal, producing an initial increase in detrusor pressure before suppression | almost totally suppressed |
